Assay results taken from paper PMC9810691, “Structure-guided peptide engineering of a positive allosteric modulator targeting the outer pore of TRPV1 for long-lasting analgesia” (Nature Communications, 2023).
“And” between values parts separate entries of the source, which are not always exact repeats. Identical values can stand only once.

Experiments:
TRPV1 [1] = target: T1, TRPV1 (Mus musculus, UniProt Q704Y3); assay: Capsaicin-induced desensitization of TRPV1 (WT) in calcium; format: cell-based, murine
Procedure: (§1) HEK293T cells are cultured using DMEM medium contained 10% FBS in a cell incubator with 5% CO2 at 37 °C. Plasmids of murine TRPV1, TRPV2, TRPV3 and human TRPA1 are labeled with YFP or GFP as indicators for subsequent electrophysiological recordings. cDNA constructs of ion channels were transiently transfected with Lipofectamine 2000 (Invitrogen, Carlsbad, CA). And one or 2 days after transient transfection, electrophysiological recordings were performed.
(§2) Patch-clamp recordings were carried out with a HEKA EPC10 amplifier controlled by PatchMaster software (HEKA). Patch pipettes were prepared from borosilicate glass and fire-polished to resistance of 3–8 MΩ by P-97 puller. Both bath solution and pipette solution contained 130 mM NaCl, 10 mM glucose, 0.2 mM EDTA, and 3 mM HEPES and were adjusted to pH 7.2–7.4 with NaOH for whole-cell recordings. For solution with pH lower than 6.5, HEPES was replaced by MES. Whole-cell recordings were performed at ±80 mV. Current was sampled at 10 kHz and filtered at 2.9 kHz. All recordings were performed at room temperature (25 °C). A gravity-driven system (RSC-200, Bio-Logic) with freely rotated perfusion tubes was used for the perfusion of peptide or ligands. Bath and ligand solution were delivered through separate tubes to minimize the mixing of solutions. […]
(§3) Data from whole-cell recordings were analyzed in Igor Pro version 5.05 (WaveMatrix). […]

[2] = tested on: Trpv1+ nerve fibers, Trpv1-Ai32 / Trpv1-Ai14 mice; assay: Trpv1+ intra-epidermal nerve fiber (IENF) quantification; format: in vivo; conditions: capsaicin 200 ng alone or with 2 μg peptide
Procedure: (§4) Adult C57 BL/6 mice (male, 8–10 weeks) and Trpv1^-/- mice (Jax Strain #:003770) were used for behavioral studies. To specifically label Trpv1-positive nerve fibers in skin tissues, Trpv1-Cre mice[36] (Jax Strain #:017769) were crossed with floxed reporter lines (Ai32, Jax Strain #:012569 or Ai14, Jax Strain #:007914) to get the transgenic reporter (Trpv1-Ai32 or Trpv1-Ai14) mice. Mice were group-housed at 22–24 °C and relative humidity of 30–70% under the 12 h light-dark cycle with access to standard food and water ad libitum. All the animal procedures were approved by the Institutional Animal Care & Use Committee (IACUC) of Zhejiang University.
After appropriate survival times, the mice were deeply anesthetized with isoflurane and perfused through the ascending aorta with PBS, followed by 4% PFA. After the perfusion, the hind paw glabrous skins and L4-L6 DRGs were removed and postfixed in the same fixative overnight. Skin sections (30 μm) and DRG sections (10 μm) were cut in a cryostat. Sections were blocked with 2% BSA for 2 h at room temperature and then incubated with Deep-red 640/660-conjugated Nissl (1:1000) at room temperature for 2 h. Sections were then incubated with DAPI (1:10,000, Vector Laboratories, catalog H-1200) for 5 min, followed by three times washing with PBS for 5 min each. The stained and mounted sections were examined with a Nikon fluorescence microscope, and images were captured with a charge-coupled device Spot camera. For quantification analysis, at least three sections from each mouse were selected, and at least three mice were analyzed in each group. To evaluate Trpv1-positive nerve fiber degeneration, transgenic reporter (Trpv1-Ai32 or Trpv1-Ai14) mice were used for the quantification of intra-epidermal nerve fiber (IENF) density. IENF density was calculated by counting the number of IENF crossing the epidermis-dermis boundary within unit length.

TRPV1 K604E = assay: Desensitization, TRPV1 mutant K604E; format: cell-based, murine; conditions: 10 μM cap alone or + 30 μM s-RhTx; single cells; listed as cap
Procedure: Site mutations of mTRPV1 were generated by Fast Mutagenesis Kit (Takara Bio). Primers used to generate point mutations are summarized in Supplementary Table 1. All mutations were confirmed by sequencing.
as §2, with “solutions. Patch pipette holding cells was placed in front of the perfusion tube outlet for perfusion.” for “solutions.”
as §3

wildtype mice = format: in vivo
Procedure: as §4, with “University. […]” for “University.”
Spontaneous pain was measured by counting the time (s) mice spent on licking, lifting, or flinching the affected hind paws over a 10-min period after i.pl. injection.

[3] = tested on: CFA-induced chronic inflammatory pain model mice; assay: CFA-induced heat hyperalgesia (Hargreaves test); format: in vivo; conditions: capsaicin alone (with saline) or with linear or folded s-RhTx; words
Procedure: Thermal sensitivity was tested using a Hargreaves radiant heat apparatus (IITC Life Science) as previously reported[40],[41]. For heat hyperalgesia test in CFA model, the basal paw withdrawal latency was adjusted to 9 to 12 s, with a cutoff of 20 s to prevent tissue damage. For thermal sensitivity test, the basal paw withdrawal latency was adjusted to 4 to 6 s, with a cutoff of 10 s to prevent tissue damage. Withdrawal latency were averaged from three consecutive tests with a 5 min interval between measurements.

[4] = tested on: CFA-induced chronic inflammatory pain model mice; format: in vivo; conditions: capsaicin alone (with saline) or with linear or folded s-RhTx; words
Procedure: Mechanical allodynia was assessed via von Frey test as previously reported. Mice were placed in a plexiglass chamber upon the elevated metal mesh with 1 cm openings and allowed to acclimatize for 1 h. To determine mechanical thresholds of paw withdrawal, a series of von Frey filaments (0.02–2.56 g, Stoelting Co.) with increasing stiffness were used according to Dixon’s up-down method.

TRPV1 [5] = target: T1, TRPV1; assay: Calcium imaging, HEK293T cells expressing TRPV1; format: cell-based, murine
Procedure: as §1
Calcium imaging assay was performed as previously described[12],[20]. In brief, HEK293T cells expressing TRPV1 were incubated with 2 μM Fluo-4 AM (Thermo Fisher) in 2 mM calcium Ringer’s solution (140 mM NaCl, 5 mM KCl, 2 mM MgCl2, 2 mM CaCl2, 10 mM glucose, and 10 mM HEPES, pH 7.4). Fluorescence images of HEK293T cells were acquired with Nikon Eclipse Ti2 microscope with optiMOS charge-coupled device camera controlled by the Ocular Software (Molecular Devices). Fluo-4 AM was excited at 500/20-nm excitation, and fluorescence emission was detected at 535/30-nm. Fluorescence images were analyzed with Fiji software and Office Excel.

T1 sequence (Q704Y3 whole entry): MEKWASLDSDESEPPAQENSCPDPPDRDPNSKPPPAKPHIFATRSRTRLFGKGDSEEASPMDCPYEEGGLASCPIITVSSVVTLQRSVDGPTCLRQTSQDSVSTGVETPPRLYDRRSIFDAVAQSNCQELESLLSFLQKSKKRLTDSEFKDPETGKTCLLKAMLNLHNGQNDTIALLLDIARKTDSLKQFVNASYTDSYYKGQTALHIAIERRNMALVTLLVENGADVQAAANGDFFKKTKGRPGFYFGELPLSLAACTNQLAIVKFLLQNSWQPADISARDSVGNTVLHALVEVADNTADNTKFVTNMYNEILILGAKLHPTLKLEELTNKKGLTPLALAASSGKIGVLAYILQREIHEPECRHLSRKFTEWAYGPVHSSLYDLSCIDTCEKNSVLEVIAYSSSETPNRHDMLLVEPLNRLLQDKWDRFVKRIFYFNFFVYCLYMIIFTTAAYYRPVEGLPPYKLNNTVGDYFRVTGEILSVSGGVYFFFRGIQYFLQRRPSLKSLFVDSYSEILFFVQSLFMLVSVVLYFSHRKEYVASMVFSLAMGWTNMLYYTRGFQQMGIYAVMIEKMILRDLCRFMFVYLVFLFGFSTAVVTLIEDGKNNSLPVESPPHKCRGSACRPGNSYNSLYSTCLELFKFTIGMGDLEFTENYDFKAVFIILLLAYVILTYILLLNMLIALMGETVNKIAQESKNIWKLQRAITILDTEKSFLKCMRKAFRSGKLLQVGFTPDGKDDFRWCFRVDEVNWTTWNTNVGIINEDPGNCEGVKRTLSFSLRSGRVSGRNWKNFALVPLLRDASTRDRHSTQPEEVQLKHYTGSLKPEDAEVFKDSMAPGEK

COc1cc(CNC(=O)CCCC/C=C/C(C)C)ccc1O [capsaicin, Capsaicin]
AUC of desensitization (mean) (TRPV1 [1]): 72.39 ± 6.61 and 39.25 ± 5.01 | desensitization time constant tau (mean) (TRPV1 [1]): 47.37 ± 6.14 s and 23.87 ± 3.97 s | IENF number, with capsaicin ([2]; individual mice, listed as Cap): 11 and 9 and 12 | number of Trpv1+ IENF, with capsaicin ([2]; words): little effect on the number of Trpv1^+ IENF | desensitization time constant, K604E (TRPV1 K604E): 46.184 s and 35.399 s and 63.872 s and 58.758 s and 34.354 s and 64.15 s | spontaneous pain behavior, with capsaicin (wildtype mice; capsaicin 200 ng alone or with 2 μg peptide, i.pl., words): caused a mild spontaneous pain behavior | total time of spontaneous pain within 10 min, with capsaicin (wildtype mice; capsaicin 200 ng i.pl. alone (cap) or with 2 μg linear or folded s-RhTx, 20 μl, individual mice, listed as Cap): 63.91 s and 41.04 s and 20.17 s and 30.43 s and 88.51 s and 98.54 s and 102.03 s and 29.73 s and 145.77 s | effect on CFA-induced heat hyperalgesia [3]: slow recovery from heat hyperalgesia | effect on CFA-induced mechanical allodynia [4]: robust and prolonged mechanical allodynia | calcium influx (TRPV1 [5]): cannot induce discernable calcium influx
